We go through 17 compounds from PubChem BioAssay AID248 (DTP/NCI, 2004).

In this experiment the test system is L1210 leukemia ip in BDF1 mice, survival T/C. Description: NCI In Vivo Anticancer Drug Screen. Data for tumor model L1210 Leukemia (intraperitoneal) in B6D2F1 (BDF1) mice. The note with it: endpoint: mean survival time, higher = longer survival. Summed up: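 Antitumor effect is assessed in tumor-bearing animals. Survival in the compound arm is compared with a vehicle-dosed control arm and expressed as their quotient.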

[1] abbreviates: dose: 100.0 mg/kg/injection, schedule: Q04DX002 (ip), vehicle: saline.
[2] abbreviates: dose: 100.0 mg/kg/injection, schedule: Q04DX003 (ip), vehicle: Klucel (hydroxypropylcellulose) (HPC).
Setting [3] is: dose: 200.0 mg/kg/injection, schedule: Q04DX003 (ip), vehicle: Klucel (hydroxypropylcellulose) (HPC).
[4] abbreviates: dose: 400.0 mg/kg/injection, schedule: Q04DX003 (ip), vehicle: Klucel (hydroxypropylcellulose) (HPC).
Where [5] appears, read: dose: 100.0 mg/kg/injection, schedule: Q01DX001 (ip), vehicle: Klucel (hydroxypropylcellulose) (HPC).
Setting [6] is: dose: 200.0 mg/kg/injection, schedule: Q01DX001 (ip), vehicle: Klucel (hydroxypropylcellulose) (HPC).
Setting [7] is: dose: 400.0 mg/kg/injection, schedule: Q01DX001 (ip), vehicle: Klucel (hydroxypropylcellulose) (HPC).

Where “and” joins values, the source holds several entries; their conditions need not be identical. Identical values can stand only once. Toxic doses and inconclusive results are not listed.

As for `O=NN(CCCl)C(=O)Nc1ccccc1`, the T/C is 114 % of control (dose: 2.0 mg/kg/injection, schedule: Q01DX Z (ip), vehicle: carboxymethylcellulose (CMC)); 169 % of control (dose: 4.0 mg/kg/injection, schedule: Q01DX Z (ip), vehicle: carboxymethylcellulose (CMC)); 160 % of control and 213 % of control (dose: 6.0 mg/kg/injection, schedule: Q01DX Z (ip), vehicle: carboxymethylcellulose (CMC)); 102 % of control (dose: 10.0 mg/kg/injection, schedule: Q01DX Z (ip), vehicle: carboxymethylcellulose (CMC)); 102 % of control (dose: 14.0 mg/kg/injection, schedule: Q01DX Z (ip), vehicle: carboxymethylcellulose (CMC)); 123 % of control (dose: 18.0 mg/kg/injection, schedule: Q01DX001 (ip), vehicle: carboxymethylcellulose (CMC)). Also, the T/C runs as follows: (dose: 18.0 mg/kg/injection, schedule: Q01DX Z (ip), vehicle: carboxymethylcellulose (CMC)) 174 % of control; (dose: 20.0 mg/kg/injection, schedule: Q01DX Z (ip), vehicle: carboxymethylcellulose (CMC)) 166 % of control; (dose: 25.0 mg/kg/injection, schedule: Q01DX Z (ip), vehicle: carboxymethylcellulose (CMC)) 107 % of control and 89 % of control; (dose: 72.0 mg/kg/injection, schedule: Q01DX001 (ip), vehicle: carboxymethylcellulose (CMC)) 114 % of control.

For the compound `Nc1ccc(-c2ccc(Nc3cc(S(=O)(=O)O)c(N)c4c3C(=O)c3ccccc3C4=O)cc2)c(S(=O)(=O)O)c1`, the T/C runs as follows: (dose: 10.0 mg/kg/injection, schedule: Q01DX001 (ip), vehicle: acetone) 96 % of control; (dose: 20.0 mg/kg/injection, schedule: Q01DX001 (ip), vehicle: acetone) 89 % of control; (dose: 40.0 mg/kg/injection, schedule: Q01DX001 (ip), vehicle: acetone) 100 % of control.

Consider `NNc1cc(=O)n2ccccc2n1`, for which the T/C reads like this: (dose: 100.0 mg/kg/injection, schedule: Q01DX001 (ip), vehicle: carboxymethylcellulose (CMC)) 98 % of control; (dose: 200.0 mg/kg/injection, schedule: Q01DX001 (ip), vehicle: carboxymethylcellulose (CMC)) 98 % of control; (dose: 400.0 mg/kg/injection, schedule: Q01DX001 (ip), vehicle: carboxymethylcellulose (CMC)) 101 % of control.

In the case of `CN(C)N=Nc1ccc(CCC(=O)NN)cc1`, the T/C was 111 % of control (dose: 20.0 mg/kg/injection, schedule: Q01DX Z (ip), vehicle: saline); 114 % of control (dose: 30.0 mg/kg/injection, schedule: Q01DX Z (ip), vehicle: saline); 91 % of control (dose: 67.0 mg/kg/injection, schedule: Q01DX Z (ip), vehicle: saline).

With `CCN(CC)CCOc1ccc(/C(=C(\Cl)c2ccccc2)c2ccccc2)cc1`, the T/C runs as follows: (dose: 6.25 mg/kg/injection, schedule: Q04DX002 (ip), vehicle: saline) 118 % of control; (dose: 12.5 mg/kg/injection, schedule: Q04DX002 (ip), vehicle: saline) 118 % of control; (dose: 25.0 mg/kg/injection, schedule: Q04DX002 (ip), vehicle: saline) 124 % of control; (dose: 50.0 mg/kg/injection, schedule: Q04DX002 (ip), vehicle: saline) 121 % of control and 124 % of control; under setting [1], 96 % of control.

On to `COc1ccc(CCN=c2c3ccccc3ccc3ccccc23)cc1OC`, for which the T/C (dose: 100.0 mg/kg/injection, schedule: Q04DX003 (ip), vehicle: saline) was 111 % of control; the T/C (dose: 200.0 mg/kg/injection, schedule: Q04DX003 (ip), vehicle: saline) is 97 % of control; the T/C (dose: 400.0 mg/kg/injection, schedule: Q04DX003 (ip), vehicle: saline) was 105 % of control.

`O=C(O)c1cccc(N2C(=O)C=CC2=O)c1`: the T/C reads like this: (dose: 25.0 mg/kg/injection, schedule: Q04DX002 (ip), vehicle: Klucel (hydroxypropylcellulose) (HPC)) 101 % of control; (dose: 50.0 mg/kg/injection, schedule: Q04DX002 (ip), vehicle: Klucel (hydroxypropylcellulose) (HPC)) 101 % of control.

On to `O=[N+]([O-])c1ccccc1N=C=S`, for which the T/C was 102 % of control (dose: 6.25 mg/kg/injection, schedule: Q01DX009 (ip), vehicle: gum acacia); 98 % of control (dose: 12.5 mg/kg/injection, schedule: Q01DX009 (ip), vehicle: gum acacia); 97 % of control and 103 % of control (dose: 25.0 mg/kg/injection, schedule: Q01DX009 (ip), vehicle: gum acacia); 98 % of control (dose: 25.0 mg/kg/injection, schedule: Q04DX002 (ip), vehicle: gum acacia); 106 % of control (dose: 50.0 mg/kg/injection, schedule: Q04DX002 (ip), vehicle: gum acacia); 103 % of control (dose: 100.0 mg/kg/injection, schedule: Q04DX002 (ip), vehicle: gum acacia).

For `NCCSC1CCCCC1`, the T/C was 110 % of control under setting [1] and 94 % of control (dose: 200.0 mg/kg/injection, schedule: Q04DX002 (ip), vehicle: saline).

Regarding `O=C1OC(c2ccccc2)=NC1(c1ccccc1)C1(c2ccccc2)N=C(c2ccccc2)OC1=O` (stereo unspecified), the T/C (dose: 100.0 mg/kg/injection, schedule: Q04DX003 (ip), vehicle: saline with Tween-80) was 88 % of control; the T/C (dose: 200.0 mg/kg/injection, schedule: Q04DX003 (ip), vehicle: saline with Tween-80) is 93 % of control; the T/C (dose: 400.0 mg/kg/injection, schedule: Q04DX003 (ip), vehicle: saline with Tween-80) was 86 % of control.

For `CCCC(=O)C(C)C(=O)C(F)(F)F.CCCC(=O)C(C)C(=O)C(F)(F)F.CCCC(=O)C(C)C(=O)C(F)(F)F.[Er]` (stereo unspecified), the T/C is 116 % of control (dose: 100.0 mg/kg/injection, schedule: Q01DX009 (ip), vehicle: Klucel (hydroxypropylcellulose) (HPC)); 98 % of control under setting [2]; 102 % of control (dose: 200.0 mg/kg/injection, schedule: Q01DX009 (ip), vehicle: Klucel (hydroxypropylcellulose) (HPC)); 94 % of control under setting [3]; 113 % of control (dose: 400.0 mg/kg/injection, schedule: Q01DX009 (ip), vehicle: Klucel (hydroxypropylcellulose) (HPC)); 94 % of control under setting [4].

Turning to `CCCCNC(=O)c1ccc(C(=O)c2ccc(C(=O)NCCCC)c(C(=O)O)c2)cc1C(=O)O`, the T/C reads like this: (dose: 100.0 mg/kg/injection, schedule: Q04DX002 (ip), vehicle: Klucel (hydroxypropylcellulose) (HPC)) 90 % of control; (dose: 200.0 mg/kg/injection, schedule: Q04DX002 (ip), vehicle: Klucel (hydroxypropylcellulose) (HPC)) 87 % of control; (dose: 400.0 mg/kg/injection, schedule: Q04DX002 (ip), vehicle: Klucel (hydroxypropylcellulose) (HPC)) 87 % of control.

For the compound `CN(C)c1ccc(C=Nc2ccc([N+](=O)[O-])cc2O)cc1`, the T/C is 97 % of control (dose: 100.0 mg/kg/injection, schedule: Q01DX001 (ip), vehicle: saline); 95 % of control (dose: 200.0 mg/kg/injection, schedule: Q01DX001 (ip), vehicle: saline); 92 % of control (dose: 400.0 mg/kg/injection, schedule: Q01DX001 (ip), vehicle: saline).

As to `O=C(Nc1ccc(Br)cc1)Nc1ccccc1Cl`, the T/C is 100 % of control (dose: 100.0 mg/kg/injection, schedule: Q04DX002 (ip), vehicle: saline + alcohol); 94 % of control (dose: 200.0 mg/kg/injection, schedule: Q04DX002 (ip), vehicle: saline + alcohol); 96 % of control (dose: 400.0 mg/kg/injection, schedule: Q04DX002 (ip), vehicle: saline + alcohol).

Take `[N-]=[N+]=C1c2ccccc2-c2ccccc21`: the T/C by setting is: under setting [5], 94 % of control; under setting [2], 104 % of control; under setting [6], 93 % of control; under setting [3], 90 % of control; under setting [7], 91 % of control; under setting [4], 101 % of control.

As for `CC([NH-])=O.CC([NH-])=O.[Cl][Pt+2][Cl]`, the T/C is, setting by setting: (dose: 50.0 mg/kg/injection, schedule: Q01DX009 (ip), vehicle: water) 120 % of control; (dose: 100.0 mg/kg/injection, schedule: Q01DX009 (ip), vehicle: water) 115 % of control; (dose: 100.0 mg/kg/injection, schedule: Q04DX003 (ip), vehicle: water) 114 % of control; (dose: 200.0 mg/kg/injection, schedule: Q04DX003 (ip), vehicle: water) 110 % of control.

Regarding `O=S(=O)(Cc1ccccc1)CC(Cl)c1ccccc1` (stereo unspecified), the T/C by setting is: under setting [5], 98 % of control; under setting [2], 97 % of control; under setting [6], 98 % of control; under setting [3], 101 % of control; under setting [7], 104 % of control; under setting [4], 92 % of control.
